The subject of the test is modified version of the GPR119 receptor (94% identity to human receptor). The test is described as follows: cAMP production assay (LANCE cAMP kit, TR-FRET) in HEK-293 cells. The following applies: for cAMP production in HEK-293 cells: HEK-293 cells stably expressing modified GPR119, test compounds 0.2 nM to 10 μM, one-hour incubation at ambient temperature; for Fold over baseline: increase in cAMP relative to basal levels, agonist activity if 1.5-fold or greater. The class given is cell-based. As for the experimental part: The assay utilized HEK-293 cells that stably express a modified version of the GPR119 receptor (94% identity to human receptor), under the control of a CMV promoter containing a tet-on element for tetracycline-inducible expression. GPR119 agonist-induced cyclic AMP (cAMP) production was measured in this cell line using the LANCE cAMP kit (Perkin Elmer, Waltham, Mass.). To generate a working stock of cells for the assay, cells were treated overnight with 1 μg/mL doxycycline at 37° C. in the presence of 5% CO2 to induce receptor expression. Cells were then harvested by enzymatic dissociation with 0.05% trypsin, resuspended in freezing medium (DMEM growth medium with 10% each of fetal bovine serum and DMSO), aliquoted and frozen at −80° C. On the day of the assay, frozen cells were thawed, washed 1× in PBS and resuspended in Hank's buffered salt solution (HBSS) containing 5 mM HEPES, 0.1% BSA and Alexa Fluor 647-conjugated anti-cAMP antibody (diluted 1:100). The cell suspension was then transferred to a Proxiplate Plus white 384-well assay plate (Perkin-Elmer) at 2000 cells/well. Test compounds at final concentrations ranging from 0.2 nM to 10 μM were added to the assay plate, followed by a one-hour incubation at ambient temperature (volume=10 μL/well). DMSO concentration was held constant at 0.5%. After incubation with test compounds, 10 μL of a detergent buffer containing a biotinylated cAMP/Europium-conjugated streptavidin complex (Europium-labeled cAMP tracer) were added to each well on the assay plate, followed by a 2-hour incubation at ambient temperature. During this incubation cAMP released from lysed cells competes with the Europium-labeled cAMP tracer for binding to the Alexa Fluor 647-conjugated antibody. […] Cellular cAMP levels were then determined by interpolation of raw signal data using a cAMP standard curve. Compounds were determined to have agonist activity if they stimulated a 1.5-fold or greater increase in cAMP relative to basal levels.
(In general: Cyclic AMP is a second messenger, typically raised through Gs and lowered through Gi signalling.)

Counter-ions that a name gives are not always drawn.

For `CS(=O)(=O)c1ccc(N[C@H]2CCN(C3CCN(c4cnc(C#N)cn4)CC3)C2=O)c(F)c1` [Example 14, (S)-5-(4-(3-(2-fluoro-4-(methylsulfonyl)phenylamino)-2-oxopyrrolidin-1-yl)piperidin-1-yl)pyrazine-2-carbonitrile], the “cAMP production in HEK-293 cells” value was determined as 32.3 nmol and the Fold over baseline is recorded as 5.5.
The like results for `CS(=O)(=O)c1cc(F)c(N[C@H]2CCCCN(C3CCN(c4nccnc4C#N)CC3)C2=O)cc1F.Cl` [Example 85, (S)-3-(4-(3-(2,5-difluoro-4-(methylsulfonyl)phenylamino)-2-oxoazepan-1-yl)piperidin-1-yl)pyrazine-2-carbonitrile hydrochloride] were, in that order, 6.5 nmol and 1.9.
Consider `Cc1nc(S(C)(=O)=O)ccc1N[C@H]1CCN(C2CCN(c3cnc(Cl)cn3)CC2)C1=O` [Example 133, (S)-1-(1-(5-chloro-pyrazin-2-yl)piperidin-4-yl)-3-(2-methyl-6-(methylsulfonyl)pyridin-3-ylamino)pyrrolidin-2-one], for which the “cAMP production in HEK-293 cells” value came out at 27.9 nmol and the Fold over baseline stood at 2.2.
The like results for `CS(=O)(=O)c1ccc(NC2CCN(C3CCN(c4ccc(-c5ccccc5)cn4)CC3)C2=O)c(F)c1` (stereo not shown) [Example 25, 3-(2-fluoro-4-(methylsulfonyl)phenylamino)-1-(1-(5-phenylpyridin-2-yl)piperidin-4-yl)pyrrolidin-2-one] were, in that order, 11.6 nmol and 2.9.
The like results for `O=C1[C@@H](Nc2ccc(S(=O)(=O)C3CC3)nc2)CCN1C1CCN(c2ncc(Cl)cc2F)CC1` [Example 126, (S)-1-(1-(5-chloro-3-fluoropyridin-2-yl)piperidin-4-yl)-3-(6-(cyclopropylsulfonyl)pyri-din-3-ylamino)pyrrolidin-2-one] were, in that order, 10.4 nmol and 2.4.
In the same order, the values of `CS(=O)(=O)c1ccc(N[C@H]2CCN(C3CCN(c4ncc(Br)cn4)CC3)C2=O)c(F)c1` [Example 7, (S)-1-(1-(5-bromopyrimidin-2-yl)piperidin-4-yl)-3-(2-fluoro-4-(methylsulfonyl)phenylamino)pyrrolidin-2-one] are 7.7 nmol and 2.4.
For the compound `CC(C)c1cnc(N2CCC(N3CC[C@H](Nc4ccc(S(C)(=O)=O)cc4F)C3=O)CC2)nc1` [Example 29, (S)-3-(2-fluoro-4-(methylsulfonyl)phenylamino)-1-(1-(5-isopropylpyrimidin-2-yl)piperidin-4-yl)pyrrolidin-2-one trifluoroacetate], the “cAMP production in HEK-293 cells” value came to 11.5 nmol and the Fold over baseline is recorded as 2.1.
For `CCc1cnc(N2CCC(N3CCCC[C@H](Nc4cc(F)c(S(C)(=O)=O)cc4F)C3=O)CC2)nc1.Cl` [Example 82, (S)-3-(2,5-difluoro-4-(methylsulfonyl)phenylamino)-1-(1-(5-ethylpyrimidin-2-yl)piperidin-4-yl)azepan-2-one hydrochloride], the “cAMP production in HEK-293 cells” value amounted to 18.5 nmol and the Fold over baseline stood at 4.0.
As for `O=C(c1ccc(O[C@H]2CCN(C3CCN(c4ncc(C(F)(F)F)cc4Cl)CC3)C2=O)c(F)c1)N1CCCC1` [Example 151], the “cAMP production in HEK-293 cells” value is 35.8 nmol and the Fold over baseline turned out to be 4.7.
Turning to `CS(=O)(=O)c1cc(F)c(N[C@H]2CCCN(C3CCN(c4ccc(C(F)(F)F)cn4)CC3)C2=O)cc1F` [Example 54, (S)-3-(2,5-difluoro-4-(methylsulfonyl)phen-ylamino)-1′-(5-(trifluoromethyl)pyridin-2-yl)-[1,4′-bipiperidin]-2-one], the “cAMP production in HEK-293 cells” value is 7.3 nmol and the Fold over baseline is reported as 2.3.
The like results for `CS(=O)(=O)c1ccc(N[C@H]2CCN(C3CCN(c4cnc(Cl)cn4)CC3)C2=O)cn1` [Example 131, (S)-1-(1-(5-chloropyrazin-2-yl)piperidin-4-yl)-3-(6-(methylsulfonyl)pyridin-3-ylamino)pyrrolidin-2-one] were, in that order, 24.8 nmol and 3.8.
In the same order, the values of `CS(=O)(=O)c1cc(F)c(N[C@H]2CCCN(C3CCN(c4ncc(I)cn4)CC3)C2=O)cc1F` [Example 47, (S)-3-(2,5-difluoro-4-(methylsulfonyl)phen-ylamino)-1′-(5-iodopyrimidin-2-yl)-[1,4′-bipiperidin]-2-one] are 9.3 nmol and 2.0.
In the case of `CS(=O)(=O)c1cc(F)c(N[C@H]2CCN(C3CCN(c4cnc(Cl)cn4)CC3)C2=O)cc1F` [Example 3, (S)-1-(1-(5-chloropyrazin-2-yl)piperidin-4-yl)-3-(2,5-difluoro-4-(methylsulfonyl)phenylamino)pyrrolidin-2-one], the “cAMP production in HEK-293 cells” value is 23.2 nmol and the Fold over baseline worked out at 5.0.
Take `CCc1cnc(N2CCC(N3CC[C@H](Nc4cc(C)c(S(C)(=O)=O)cc4F)C3=O)CC2)nc1` [Example 35, (S)-1-(1-(5-ethylpyrimidin-2-yl)piperidin-4-yl)-3-(2-fluoro-5-methyl-4-(methylsulfonyl)phenylamino)pyrrolidin-2-one]: the “cAMP production in HEK-293 cells” value stood at 14.5 nmol and the Fold over baseline was determined as 4.1.
With `CS(=O)(=O)c1cc(F)c(O[C@H]2CCCN(C3CCN(c4cnc(Cl)cn4)CC3)C2=O)cc1F` [Example 164, (S)-1′-(5-chloropyrazin-2-yl)-3-(2,5-difluoro-4-(methylsulfonyl)phenoxy)-[1,4′-bipiperidin]-2-one], the “cAMP production in HEK-293 cells” value came out at 21.6 nmol and the Fold over baseline worked out at 4.3.
The like results for `CS(=O)(=O)c1cc(F)c(N[C@H]2CCN(C3CCN(c4cnc(C(F)(F)F)cn4)CC3)C2=O)cc1F` [Example 11, (S)-3-(2,5-difluoro-4-(methylsulfonyl)phenylamino)-1-(1-(5-(trifluoromethyl)pyrazin-2-yl)piperidin-4-yl)pyrrolidin-2-one] were, in that order, 27.1 nmol and 3.4.
In the same order, the values of `CCc1cnc(N2CCC(N3CCC[C@H](Nc4cc5c(cc4F)S(=O)(=O)CC5)C3=O)CC2)nc1` [Example 73, (S)-1′-(5-ethylpyrimidin-2-yl)-3-((6-fluoro-1,1-dioxido-2,3-dihydrobenzo[b]thiophen-5-yl)amino)-[1,4′-bipiperidin]-2-one] are 14.4 nmol and 3.0.
For the compound `CS(=O)(=O)c1ccc(N[C@H]2CCCCN(C3CCN(c4cnc(Cl)cn4)CC3)C2=O)c(F)c1.Cl` [Example 80, (S)-1-(1-(5-chloropyrazin-2-yl)piperidin-4-yl)-3-(2-fluoro-4-(methylsulfonyl)phenylamino)azepan-2-one hydrochloride], the “cAMP production in HEK-293 cells” value was found to be 18.3 nmol and the Fold over baseline is listed as 3.7.
The like results for `CS(=O)(=O)c1ccc(O[C@H]2CCN(C3CCN(c4ncc(C(F)(F)F)cc4F)CC3)C2=O)cn1` [Example 142, (S)-1-(1-(3-fluoro-5-(trifluoromethyl)pyridin-2-yl)piperidin-4-yl)-3-(6-(methylsulfonyl)pyridin-3-yloxy) pyrrolidin-2-one] were, in that order, 21.7 nmol and 8.3.
In the same order, the values of `CS(=O)(=O)c1ccc(O[C@H]2CCN(C3CCN(c4ncc(C(F)(F)F)cc4F)CC3)C2=O)c(F)c1` [Example 138, (S)-3-(2-fluoro-4-(methyl-sulfonyl)phenoxy)-1-(1-(3-fluoro-5-(trifluoro-methyl)pyridin-2-yl)piperidin-4-yl) pyrrolidin-2-one] are 38.6 nmol and 6.7.
The like results for `CS(=O)(=O)c1cc(F)c(O[C@H]2CCCN(C3CCN(c4ncc(C(F)(F)F)cc4F)CC3)C2=O)cc1F` [Example 163, (S)-3-(2,5-difluoro-4-(methylsulfonyl)phenoxy)-1′-(3-fluoro-5-(trifluoromethyl)pyridin-2-yl)-[1,4′-bipiperidin]-2-one] were, in that order, 18.3 nmol and 3.9.
As for `CN(CCO)C(=O)c1ccc(O[C@H]2CCN(C3CCN(c4ncc(Cl)cc4F)CC3)C2=O)c(F)c1` [Example 154, (S)-4-(1-(1-(5-chloro-3-fluoropyridin-2-yl)piperidin-4-yl)-2-oxopyrrolidin-3-yloxy)-3-fluoro-N-(2-hydroxyethyl)-N-methylbenzamide], the “cAMP production in HEK-293 cells” value was determined as 14.6 nmol and the Fold over baseline was found to be 3.1.
In the same order, the values of `CCc1cnc(N2CCC(N3CC[C@H](Nc4ccc(S(=O)(=O)CC)cc4F)C3=O)CC2)nc1` [Example 34, (S)-1-(1-(5-ethylpyrimidin-2-yl)piperidin-4-yl)-3-(4-(ethylsulfonyl)-2-fluorophenylamino)pyrrolidin-2-one] are 11.4 nmol and 2.8.

These data come from patent US8754226B2, “Piperidinyl-substituted lactams as GPR119 modulators” (Array BioPharma Inc., priority 2010, dated 2014).
